Each structure is given as a SMILES string. pKi: −log10 of the molar value.

For the first test, the target named is T1, CCR2 (Homo sapiens, UniProt P41597).
T1 construct: Membranes were prepared from THP-1 cells; endogenous in cells; host or cells: THP-1 cells (membrane preparation)
T1 sequence (P41597 1-360 isoform P41597-2): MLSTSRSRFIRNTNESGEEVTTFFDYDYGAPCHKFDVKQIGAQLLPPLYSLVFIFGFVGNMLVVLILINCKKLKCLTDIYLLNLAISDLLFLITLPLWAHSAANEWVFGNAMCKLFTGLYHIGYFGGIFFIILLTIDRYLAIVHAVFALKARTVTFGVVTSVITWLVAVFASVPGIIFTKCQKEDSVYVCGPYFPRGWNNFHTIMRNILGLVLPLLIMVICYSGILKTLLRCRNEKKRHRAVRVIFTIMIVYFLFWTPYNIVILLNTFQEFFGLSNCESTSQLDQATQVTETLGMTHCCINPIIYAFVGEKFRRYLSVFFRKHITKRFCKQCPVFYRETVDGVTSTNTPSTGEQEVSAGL
Description: CCR2 receptor membrane binding assay ([125I]MCP-1, THP-1 cell membranes, SPA beads). The following applies: @ 10 μM test compound; THP-1 membranes; read-out: CCR2 % ctrl @ 10 μM. In short, it runs like this:
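hKi was derived by iterative law-of-mass-action fitting of scintillation counts read at 8 h. Compound (1% DMSO final) competed with ca. 25000 cpm [125I]MCP-1 for THP-1 membranes bound to WGA-PVT beads. Buffer: 25 mM HEPES pH 7.2, 5 mM MgCl2, 0.5 mM CaCl2, 0.2% BSA.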
For the compound `O=C(c1ncnc(NCc2cccc(-c3ccccc3)c2)c1Br)N1CCC(N2CCOCC2)CC1` [Example 277], the remaining activity at 10 µM turned out to be 34%.

Consider `O=C(c1ncnc(NCc2cccc(-c3ccccc3)c2)c1Br)N1CCC(N2CCC(O)CC2)CC1` [Example 278], for which the remaining activity at 10 µM stood at 32%.

Turning to `Cc1c(NCCc2ccc(Cl)c(Cl)c2)ncnc1C(=O)N1CCC(N2CCOCC2)CC1` [Example 279], the remaining activity at 10 µM stood at 9%.

As to `CCc1c(NCCc2ccc(Cl)c(Cl)c2)ncnc1C(=O)N1CCC(N2CCC(O)CC2)CC1` [Example 280], the remaining activity at 10 µM was found to be 32%.

As for `CCc1c(NCCc2ccc(Cl)c(Cl)c2)ncnc1C(=O)N1CCC(N2CCOCC2)CC1` [Example 281], the remaining activity at 10 µM was determined as 24%.

As for `CCc1c(NCc2cccc(-c3ccccc3)c2)ncnc1C(=O)N1CCC(N2CCC(O)CC2)CC1` [Example 282], the remaining activity at 10 µM came to 39%.

For the compound `Cc1c(NCc2cccc(-c3ccccc3)c2)cccc1C(=O)N1CCC(N2CCC(O)CC2)CC1` [Example 283], the remaining activity at 10 µM amounted to 48%.

Regarding `Cc1c(NCCc2ccc(Cl)c(Cl)c2)ncnc1C(=O)N1CCC(N2CCN(C(=O)C(C)C)CC2)CC1` [Example 284], the remaining activity at 10 µM is 42%.

Take `Cc1c(NCCc2ccc(Cl)c(Cl)c2)ncnc1C(=O)N1CCC(N2CCN(S(C)(=O)=O)CC2)CC1` [Example 285]: the remaining activity at 10 µM stood at 35%.

In the case of `Cc1c(NCc2ccc(C(C)(C)C)cc2)ncnc1C(=O)N1CCCN(C2CCCC2)CC1` [Example 286], the remaining activity at 10 µM turned out to be 19%.

Consider `Cc1c(NCc2ccc(C(C)(C)C)cc2)ncnc1C(=O)N1CCCN(C(C)C)CC1` [Example 287], for which the remaining activity at 10 µM came to 33%.

In the case of `Cc1c(NCc2ccc(C(C)(C)C)cc2)ncnc1C(=O)N1CCCN(C2CCOCC2)CC1` [Example 288], the remaining activity at 10 µM came out at 13%.

Still in this test, the particulars now being: dissociation constant hKi; [125I]MCP-1 binding to THP-1 membranes.
In turn, `CO[C@@H]1COCC[C@@H]1NC1CCN(C(=O)c2ncnc(NC[C@H]3CCC[C@@H](c4ccc(C)o4)C3)c2C)CC1` [Example 275da] gave a negative-log Ki (pKi) of 8.40.

`CO[C@@H]1COCC[C@@H]1NC1CCN(C(=O)c2ncnc(NC[C@@H]3CCC[C@H](c4ccc(C)o4)C3)c2C)CC1` [Example 275db] had a negative logarithm of the Ki (pKi) of 7.48. Compared with the last compound, the pKi is 0.92 log units lower.

In the case of `CO[C@@H]1COCC[C@@H]1NC1CCN(C(=O)c2nc(C)nc(NC[C@H]3C[C@@H](c4ccccc4)C3)c2C)CC1` [Example 275dc], the pKi is 7.96.

Turning to `CO[C@H]1COCC[C@H]1NC1CCN(C(=O)c2ncnc(NC[C@H]3C[C@@H](c4ccccc4)C3)c2C)CC1` [Example 275dd], the negative-log Ki (pKi) is 7.40. Against the preceding compound, the pKi is 0.56 log units lower.

The compound `CO[C@@H]1COCC[C@@H]1NC1CCN(C(=O)c2nc(C)nc(NC[C@H]3C[C@H](c4ccccc4)C3)c2C)CC1` [Example 275de] had a negative-log Ki (pKi) of 7.80.

For the compound `CO[C@@H]1COCC[C@@H]1NC1CCN(C(=O)c2ncnc(NC[C@H]3C[C@H](c4ccccc4)C3)c2C)CC1` [Example 275df], the pKi is 7.82.

`CO[C@@H]1COCC[C@@H]1NC1CCN(C(=O)c2ncnc(NC[C@H]3C[C@@H](c4ccccc4)C3)c2C)CC1` [Example 275dg] gave a pKi of 7.92.

Consider `CO[C@H]1COCC[C@H]1NC1CCN(C(=O)c2ncnc(NC[C@H]3CCC[C@@H](c4ccccc4)C3)c2C)CC1` [Example 275dh], for which the negative logarithm of the Ki (pKi) is 8.52.

For the compound `CO[C@@H]1COCC[C@@H]1NC1CCN(C(=O)c2ncnc(NC[C@H]3CCC[C@@H](c4ccccc4)C3)c2C)CC1` [Example 275di], the negative logarithm of the Ki (pKi) was 9.00.

In turn, `COC1COCCC1N(C)C1CCN(C(=O)c2ncnc(NC[C@H]3CCC[C@@H](c4ccccc4)C3)c2C)CC1` (stereo partly drawn) [Example 275dj] gave a negative logarithm of the Ki (pKi) of 8.40.

In the case of `C=Cc1c(NC[C@H]2CCC[C@@H](c3ccccc3)C2)ncnc1C(=O)N1CCC(N2CCC(N(C)S(C)(=O)=O)CC2)CC1` [Example 275dk], the negative-log Ki (pKi) was 7.77.

In the case of `C#Cc1c(NC[C@H]2CCC[C@@H](c3ccccc3)C2)ncnc1C(=O)N1CCC(N2CCC(N(C)S(C)(=O)=O)CC2)CC1` [Example 275dl], the negative logarithm of the Ki (pKi) was 6.43.

For the compound `O=C(c1ncnc(NCc2cccc(-c3ccccc3)c2)c1Br)N1CCC(N2CCOCC2)CC1` [Example 277], the pKi was 5.86.

The compound `O=C(c1ncnc(NCc2cccc(-c3ccccc3)c2)c1Br)N1CCC(N2CCC(O)CC2)CC1` [Example 278] had a pKi of 5.97.

`Cc1c(NCCc2ccc(Cl)c(Cl)c2)ncnc1C(=O)N1CCC(N2CCOCC2)CC1` [Example 279] showed a pKi of 6.72.

Turning to `CCc1c(NCCc2ccc(Cl)c(Cl)c2)ncnc1C(=O)N1CCC(N2CCC(O)CC2)CC1` [Example 280], the negative-log Ki (pKi) is 5.84.

`CCc1c(NCCc2ccc(Cl)c(Cl)c2)ncnc1C(=O)N1CCC(N2CCOCC2)CC1` [Example 281]: the negative logarithm of the Ki (pKi) is 5.99. The pKi values of the last two compounds are within 0.2 log units of each other.

With `CCc1c(NCc2cccc(-c3ccccc3)c2)ncnc1C(=O)N1CCC(N2CCC(O)CC2)CC1` [Example 282], the pKi was 5.82.

`Cc1c(NCc2cccc(-c3ccccc3)c2)cccc1C(=O)N1CCC(N2CCC(O)CC2)CC1` [Example 283] had a pKi of 5.35. This pKi is 0.47 log units lower than that of the compound before.

Regarding `Cc1c(NCCc2ccc(Cl)c(Cl)c2)ncnc1C(=O)N1CCC(N2CCN(C(=O)C(C)C)CC2)CC1` [Example 284], the negative-log Ki (pKi) was 5.82.

On to `Cc1c(NCCc2ccc(Cl)c(Cl)c2)ncnc1C(=O)N1CCC(N2CCN(S(C)(=O)=O)CC2)CC1` [Example 285], for which the pKi is 5.88. This pKi and that of the compound before are within 0.2 log units of each other.

On to `Cc1c(NCc2ccc(C(C)(C)C)cc2)ncnc1C(=O)N1CCCN(C2CCCC2)CC1` [Example 286], for which the pKi is 6.02. This pKi and that of the compound before are within 0.2 log units of each other.

For the compound `Cc1c(NCc2ccc(C(C)(C)C)cc2)ncnc1C(=O)N1CCCN(C(C)C)CC1` [Example 287], the pKi was 5.59. Compared with the last compound, the pKi is 0.43 log units lower.

`Cc1c(NCc2ccc(C(C)(C)C)cc2)ncnc1C(=O)N1CCCN(C2CCOCC2)CC1` [Example 288] had a pKi of 6.13. This pKi is 0.54 log units higher than that of the compound before.
